Here are results for 11 molecules from patent US20220213052A1, “INHIBITORS OF RNA-BINDING PROTEINS, COMPOSITIONS THEREOF, AND THERAPEUTIC USES THEROF” (The University of North Carolina at Chapel Hill, priority 2019, published 2022).

For series [1], the target named is T1, full-length human HuR protein (Homo sapiens, UniProt Q15717).
T1 construct: full-length human HuR protein was produced by the KU COBRE-PSF Protein Purification Group; made in house
As to the kind of experiment: FP-based binding of full length HuR to fluorescein-labeled target RNAs. The settings on record: 16 nt RNA oligo, 3′-fluorescein. The protocol:
FIG. 3 provides the results of a fluorescence polarization (FP)-based binding assay, illustrating that full length HuR binds to FITC-Bcl-2, Msi1, and XIAP RNA but not to scrambled oligo-FITC. The concentration of FITC-RNA used in the assay is 2 nM.
(§1) A fluorescence polarization (FP)-based binding assay was utilized to assess the inhibition of HuR protein interaction with the ARE site of Msi1 mRNA (“HuR-Msi1^ARE”) by compounds of interest. Briefly, full-length human HuR protein was produced by the KU COBRE-PSF Protein Purification Group and Bcl2, Msi1 and XIAP mRNA sequences (16 nt) were designed based on literature precedent^23,24,31,32. Fluorescein labeled RNAs were purchased from Dharmacon with the following sequences: Msi1 RNA: 5′-[…]-3′-fluorescein; Bcl-2 RNA: 5′-[…]-3′-fluorescein; XIAP RNA: 5′-[…] UGUC-3′-fluorescein, and a 16-nt degenerative RNA with 3′-fluorescein label was used as a negative control.

In a further series the target is Msi1 (Homo sapiens, UniProt O43347). Nature of the series: Msi1 FP assay. Format: binding. As for the experimental part:
(§2) With the FP assay of HuR-Msi1ARE binding, the inhibition of the HuR-Msi1ARE interaction by various compounds of the present technology was assessed. Similar FP assays for Musashi 2 (Msi2) and for RNA-binding protein Lin-28 homolog B (LIN28B) were also performed on various compounds of the present technology. The results of such assays for HuR are provided in Table 1 alongside the compound structures as well as ID numbers for ease of reference; the results of such assays for Msi1, Msi2, and LIN28B are provided in Table 2.

The test system of series [2] is colon cancer cell line HCT116. Nature of the series: Cytotoxicity assay (WST-8), HCT116. The format is cell-based. The settings on record: Homo sapiens, HCT-116, 96 h incubation. The protocol:
(§3) The cytotoxicity of various compounds of the present technology in several cancer cell lines (pancreatic cancer cell line MIAPaCa-2, triple-negative breast cancer cell line MDA-MB-231, and colon cancer cell lines HCT116, HCT116 β/W, and RKO) was assessed by a cytotoxicity assay. Cells were seeded in 96-well culture plates (3,000-5,000 cells/well) and treated with titrated compounds in triplicate. After 96 h incubation, cell growth medium was removed and proliferation reagent WST-8 (Sigma) was added to each well and incubated at 37° C. for 1-3 h. Absorbance was then measured with a plate reader at 450 nm with correction at 650 nm. The results were expressed as the percentage of absorbance of treated wells versus that of vehicle control. IC50, the drug concentration causing 50% growth inhibition, was calculated via sigmoid curve fitting using GraphPad Prism 5.0. The results for those compounds tested against MIAPaCa-2 and MDA-MB-231 are provided in Table 1; the results for those compounds tested against colon cancer cell lines HCT116, HCT116 β/W, and RKO are provided in Table 3.

In series [3] the target is T2, RNA-binding protein Lin-28 homolog B (LIN28B) (Homo sapiens, UniProt Q6ZN17).
T2 sequence (Q6ZN17 1-250): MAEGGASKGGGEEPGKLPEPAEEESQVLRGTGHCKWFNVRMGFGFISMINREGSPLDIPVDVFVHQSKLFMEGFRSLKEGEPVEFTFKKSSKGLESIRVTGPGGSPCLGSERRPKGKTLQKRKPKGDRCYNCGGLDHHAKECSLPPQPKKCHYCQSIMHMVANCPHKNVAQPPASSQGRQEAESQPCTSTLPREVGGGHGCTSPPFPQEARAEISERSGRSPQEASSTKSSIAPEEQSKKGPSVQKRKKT
Nature of the series: LIN28B FP assay. The protocol: as §2

The target in the next series is Musashi 2 (Msi2) (Homo sapiens, UniProt Q96DH6). Nature of the series: Msi2 FP assay. The format is binding. The protocol: as §2
Musashi 2 (Msi2), sequence (Q96DH6 whole entry, species assumed): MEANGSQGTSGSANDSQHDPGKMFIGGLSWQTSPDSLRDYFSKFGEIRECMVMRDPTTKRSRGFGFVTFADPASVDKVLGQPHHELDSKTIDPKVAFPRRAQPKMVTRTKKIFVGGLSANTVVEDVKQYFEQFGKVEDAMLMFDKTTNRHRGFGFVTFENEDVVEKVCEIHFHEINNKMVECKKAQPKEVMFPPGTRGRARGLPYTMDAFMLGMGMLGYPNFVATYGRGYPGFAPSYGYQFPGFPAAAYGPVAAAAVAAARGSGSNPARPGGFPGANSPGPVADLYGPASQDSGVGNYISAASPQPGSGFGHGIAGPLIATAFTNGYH
Series [4] addresses T1, full-length human HuR protein. Nature of the series: FP assay of HuR-Msi1 ARE binding inhibition. As to conditions: HuR-Msi1 ARE interaction; read-out: HuR Ki via FP assay.
Description: as §1, §2

The test system of series [5] is colon cancer cell line SW480. As to the kind of experiment: Cytotoxicity assay (WST-8), SW480. As to conditions: Homo sapiens, 96 h incubation. The format is cell-based.
Series [6] has as its system pancreatic cancer cell line MIAPaCa-2. As to the kind of experiment: Cytotoxicity assay (WST-8), MIAPaCa-2. Format: cell-based. The settings on record: Homo sapiens, MIA PaCa-2, 96 h incubation. The protocol:
as §3

Series [7] concerns triple-negative breast cancer cell line MDA-MB-231. Nature of the series: Cytotoxicity assay (WST-8), MDA-MB-231. The format is cell-based. As to conditions: Homo sapiens, 96 h incubation. The protocol:
as §3

Series [8] has as its system colon cancer cell line HCT116 β/W. As to the kind of experiment: Cytotoxicity assay (WST-8), HCT116 β/W. The format is cell-based. The settings on record: Homo sapiens, HCT-116, 96 h incubation. As for the experimental part:
as §3

Series [9] concerns colon cancer cell line RKO. Nature of the series: Cytotoxicity assay (WST-8), RKO. The format is cell-based. As to conditions: 96 h incubation. As for the experimental part:
as §3

For series [10], the target named is T3, HuR protein bound to ARE^Msi1-Biotin (Homo sapiens, UniProt Q15717).
T3 construct: endogenous in cells; cytoplasmic lysate
T3 sequence (Q15717 2-326 limits assumed): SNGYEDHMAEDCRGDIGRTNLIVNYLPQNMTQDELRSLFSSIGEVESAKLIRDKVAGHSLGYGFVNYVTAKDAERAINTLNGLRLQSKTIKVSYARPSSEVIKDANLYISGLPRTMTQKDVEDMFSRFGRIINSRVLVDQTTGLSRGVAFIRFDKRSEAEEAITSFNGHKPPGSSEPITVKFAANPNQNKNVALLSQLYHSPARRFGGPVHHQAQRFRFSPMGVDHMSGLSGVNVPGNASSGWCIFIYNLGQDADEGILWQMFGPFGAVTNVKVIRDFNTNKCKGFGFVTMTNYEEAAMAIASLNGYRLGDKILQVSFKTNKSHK
As to the kind of experiment: RNA immunoprecipitation (RNA-IP) pull-down assay. As to conditions: 20 μM. The format is cell-based. As for the experimental part:
Pull-down Assay #1—RNA Immunoprecipitation (RNA-IP): Cells with HuR overexpression will be treated with compounds, then the cell cytoplasmic lysates were collected using NE-PER Nuclear and Cytoplasmic Extraction Kit (Thermo Scientific), and subsequently to the cell cytoplasmic lysates were added the biotinylated target ARE oligo from Msi1 mRNA (ARE^Msi1-Biotin). Following this, streptavidin beads were added to pull down HuR protein bound to ARE^Msi1-Biotin. Unlabeled target AREs used as positive control. Compounds of the present technology block the HuR pull-down by the biotinylated ARE oligo, illustrating inhibition of the HuR-mRNA interaction. For example, using 20 μM KH-39, 20 μM KH-56, and 10 μM KH-58 in such a RNA-IP assay provided the data illustrated in FIG. 5. The numbers immediately below the pictured bands in FIG. 5 are calculated by diving the band intensity of the particular sample by the band intensity of the DMSO treated sample (entry 3). […]

Another series concerns MDA-MB-231 cells. As to the kind of experiment: Matrigel invasion assay. Format: cell-based. The settings on record: 10 μM; 24 h pretreatment, 20 h incubation. As for the experimental part: To examine the anti-metastatic effect of compounds of the present technology, an invasion assay using Matrigel Invasion Chambers coated with Matrigel Matrix was performed. To perform the assays, MDA-MB-231 cells pretreated with compounds for 24 hours are added to the chambers and then incubated for 20 hours. Cells that remained on the upper surface of the chamber are completely removed with a cotton swab. Cells that emigrated or invaded through the membrane/Matrigel to the bottom of the chamber were fixed and stained with 0.2% crystal violet and photographed.

For series [11], the target named is T4, HuR-bound target mRNAs in MDA-MB-231 cells (Homo sapiens, UniProt Q15717).
T4 construct: endogenous in cells; host or cells: MDA-MB-231
T4 sequence (Q15717 2-326 limits assumed): as above
As to the kind of experiment: Ribonucleoprotein immunoprecipitation (RNP-IP) pull-down assay. Format: cell-based. The settings on record: 10 μM. As for the experimental part:
Pull-down Assay #2—Ribonuleoprotein Immunoprecipitation (RNP-IP): Cells with HuR overexpression were treated with compounds, then the cell cytoplasmic lysates collected using NE-PER Nuclear and Cytoplasmic Extraction Kit (Thermo Scientific), then the cell cytoplasmic lysates incubated with anti-HuR antibody, and subsequently Protein G agarose beads (from Roche) added to pull down HuR protein. The HuR-bound target mRNAs pulled down were measured by qRT-PCR using a reported method (Ji, Q., et al., MicroRNA miR-34 inhibits human pancreatic cancer tumor-initiating cells. PLoS One, 2009. 4(8): p. e6816, incorporated herein by reference). Mouse IgG will be used as negative control. Compounds of the present technology block the target mRNAs pulled down by HuR antibody.

The mark [12] stands for this setting: cell marked (RRM1), read-out: Msi2 (Ki) (RRM1).
[13] abbreviates: cell without (RRM1) mark, read-out: Msi2 (Ki).

Counter-ions that a name gives are not always drawn. Like-named read-outs stand apart in the source and are kept apart here.

T1 sequence (Q15717 whole entry): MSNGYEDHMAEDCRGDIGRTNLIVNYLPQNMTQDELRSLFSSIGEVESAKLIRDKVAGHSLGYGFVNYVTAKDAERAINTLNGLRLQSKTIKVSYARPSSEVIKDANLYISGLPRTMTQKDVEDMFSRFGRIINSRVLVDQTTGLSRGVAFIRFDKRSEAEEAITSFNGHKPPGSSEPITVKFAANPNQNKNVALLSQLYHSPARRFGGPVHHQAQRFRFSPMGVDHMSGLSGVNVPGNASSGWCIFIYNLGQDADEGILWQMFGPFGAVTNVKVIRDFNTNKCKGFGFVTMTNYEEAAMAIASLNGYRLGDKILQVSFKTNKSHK
Msi1, sequence (O43347 whole entry, species assumed): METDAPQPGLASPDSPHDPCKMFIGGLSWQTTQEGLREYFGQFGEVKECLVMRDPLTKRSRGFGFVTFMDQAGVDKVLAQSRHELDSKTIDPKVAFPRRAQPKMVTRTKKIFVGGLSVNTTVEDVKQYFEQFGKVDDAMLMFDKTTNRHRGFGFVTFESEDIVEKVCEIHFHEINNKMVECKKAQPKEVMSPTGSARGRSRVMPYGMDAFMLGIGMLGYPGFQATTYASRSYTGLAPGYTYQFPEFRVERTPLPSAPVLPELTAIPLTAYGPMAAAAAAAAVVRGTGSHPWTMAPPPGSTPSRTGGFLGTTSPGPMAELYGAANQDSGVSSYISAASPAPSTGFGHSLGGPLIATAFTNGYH

On to “5′-AAAAGAUUUAUUUAUU-3′-fluorescein (3'-fluorescein, further chemistry not given here) [Bcl-2 RNA, Fluorescein labeled 16 nt RNA purchased from Dharmacon]”, for which, in series [1], the affinity, expressed as Kd, was 0.0063 µM.
Regarding “5′-GCUUUUAUUUAUUUUG-3′-fluorescein (3'-fluorescein, further chemistry not given here) [Msi1 RNA, Fluorescein labeled 16 nt RNA purchased from Dharmacon]”, the Kd in series [1] turned out to be 0.002 µM.
Molecule “5′-UAGUUAUUUUUA UGUC-3′-fluorescein (UAGUUAUUUUUAUGUC; 3'-fluorescein, further chemistry not given here) [XIAP RNA, Fluorescein labeled 16 nt RNA purchased from Dharmacon]” showed a Kd in series [1] of 0.0035 µM.
For the molecule `CC(C)(C)c1ccc(C(=O)Nc2ccc3sc(/C=C/C(=O)O)cc3c2)cc1` [KH-19A, (E)-3-(5-(4-(tert-butyl)benzamido)benzo[b]thiophen-2-yl)acrylic acid], the Ki was 2.24 µM at Msi1, > 20 µM in series [3], 0.28 µM on Musashi 2 (Msi2) (setting [12]) and 0.97 µM in [4]. Besides, the half-maximal inhibitory concentration (IC50) was > 100 µM in series [2]; > 100 µM in series [5]; 56 µM in series [6]; 72.1 µM in series [7]; 80.6 µM in series [8]; 78.5 µM in series [9].
`CC(C)(C)C(=O)Nc1ccc2sc(/C=C/C(=O)NO)cc2c1` [KH-20, (E)-N-hydroxy-3-(5-pivalamidobenzo[b]thiophen-2-yl)acrylamide]: the Ki (at Msi1; in series [3]; at Musashi 2 (Msi2) (setting [13]); in [4]) was > 20 µM in each case. This molecule had a half-maximal inhibitory concentration (IC50) in [6] of 3.98 µM.
Regarding `CC(C)(C)C(=O)Nc1ccc2sc(/C=C/C(=O)O)cc2c1` [KH-20A, (E)-3-(5-pivalamidobenzo[b]thiophen-2-yl)acrylic acid], the inhibition constant (Ki) (on Msi1; in [3]; on Musashi 2 (Msi2) (setting [13]); in series [4]) was > 20 µM in each case. In addition, the concentration for half-maximal inhibition (IC50) in series [6] is > 100 µM.
Consider `CN(C)c1ccc(C(=O)Nc2ccc3sc(/C=C/C(=O)NO)cc3c2)cc1` [KH-36, (E)-4-(dimethylamino)-N-(2-(3-(hydroxyamino)-3-oxoprop-1-en-1-yl)benzo[b]thiophen-5-yl)benzamide], for which the 50% inhibitory concentration (IC50) was 5.05 µM in series [2]; 4.89 µM in [5]; 4.02 µM in series [7]; 4 µM in series [8]; 5.74 µM in [9]. Further, the Ki worked out at 7.1 µM in series [3], 1.5 µM on Musashi 2 (Msi2) (setting [12]) and 0.55 µM in series [4].
With `CN(C)c1ccc(C(=O)Nc2ccc3sc(/C=C/C(=O)O)cc3c2)cc1` [KH-36A, (E)-3-(5-(4-(Dimethylamino)benzamido)benzo[b]thiophen-2-yl)acrylic acid], the inhibition constant (Ki) at Msi1 is 0.22 µM; in series [3], 1.64 µM; at Musashi 2 (Msi2) (setting [12]), 0.5 µM; in series [4] it was 0.12 µM. Also, the IC50 in [2] was 98.5 µM; in [5], > 100 µM; in series [7], > 100 µM; in series [8], 99.9 µM; in [9], 62.9 µM.
`CN(C)c1ccc(C(=O)Nc2ccc3sc(CCC(=O)NO)cc3c2)cc1` [KH-38]: the Ki on Msi1 was > 20 µM; in series [3], > 20 µM; on Musashi 2 (Msi2) (setting [13]), > 20 µM; in [4] it was 2.88 µM. Also, in series [7], the IC50 was 25.9 µM.
`CC(C)(C)c1ccc(C(=O)Nc2ccc3[nH]c(C(=O)O)cc3c2)cc1` [KH-39A, 5-(4-(tert-butyl)benzamido)-1H-indole-2-carboxylic acid]: the Ki on Msi1 is > 20 µM; in series [3] it was > 20 µM; on Musashi 2 (Msi2) (setting [12]), 22 µM; in [4], 12.5 µM. Besides, in series [7], the concentration for half-maximal inhibition (IC50) is > 100 µM.
As to `O=C(Nc1ccc2[nH]c(C(=O)NO)cc2c1)c1ccccn1` [KH-56, N-hydroxy-5-(picolinamido)-1H-indole-2-carboxamide hydrochloride], the Ki (in series [3]; at Musashi 2 (Msi2) (setting [13]); in series [4]) was > 20 µM throughout. Also, the “ARE^Msi1-Biotin mediated pull-down of HuR protein” value in series [10] is “did not show pull-down of HuR protein”. Also, the MDA-MB-231 cell invasion result in the series with MDA-MB-231 cells is recorded as “did not provide a statistically significant difference”. The “HuR pull-down of target mRNAs” value in series [11] is “did not provide results statistically distinguishable from vehicle control”. In series [7], this molecule showed an IC50 of 75.3 µM.
